# According to ChEMBL document CHEMBL3272104, “Inhibition of Lactobacillus casei thymidylate synthetase by 5-substituted 2'-deoxyuridylates. Preliminary quantitative structure-activity relationship” (J Med Chem, 1977):
# B1: Thymidylate synthase (Lactobacillus casei), P00469 (protein)
# chain: MLEQPYLDLAKKVLDEGHFKPDRTHTGTYSIFGHQMRFDLSKGFPLLTTKKVPFGLIKSELLWFLHGDTNIRFLLQHRNHIWDEWAFEKWVKSDEYHGPDMTDFGHRSQKDPEFAAVYHEEMAKFDDRVLHDDAFAAKYGDLGLVYGSQWRAWHTSKGDTIDQLGDVIEQIKTHPYSRRLIVSAWNPEDVPTMALPPCHTLYQFYVNDGKLSLQLYQRSADIFLGVPFNIASYALLTHLVAHECGLEVGEFIHTFGDAHLYVNHLDQIKEQLSRTPRPAPTLQLNPDKHDIFDFDMKDIKLLNYDPYPAIKAPVAV
# Columns and labels:
# [1] = molecular target: T1, Thymidylate synthase (Lactobacillus casei) (UniProt P00469); test: Activity at amethopterin-resistant Lactobacillus casei thymidylate synthetase assessed as rate of dTMP formation by absorbance analysis in presence of CH2-H4-folate; details: Lacticaseibacillus casei
# T1 sequence (whole entry): B1 chain
# [2] = molecular target: T2, Thymidylate synthase (Lactobacillus casei, UniProt P00469); test: Inhibition of amethopterin-resistant Lactobacillus casei thymidylate synthetase-catalyzed dTMP formation using dUMP as substrate by spectrophotometric analysis in presence of CH2-H4-folate; set-up: species or system Lacticaseibacillus casei; details: read-out: Ki(app)
# T2 sequence (P00469 whole entry): B1 chain
# [3] = molecular target: T2, Thymidylate synthase; test: Inhibition of amethopterin-resistant Lactobacillus casei thymidylate synthetase-catalyzed 5-BrdUMP dehalogenation by absorbance analysis in absence of CH2-H4-folate; set-up: species or system Lacticaseibacillus casei; details: read-out: Ki(app)
# [4] = substrate: O=c1ccn([C@H]2C[C@H](O)[C@@H](COP(=O)(O)O)O2)c(=O)[nH]1; details: Lacticaseibacillus casei
# Description: Activity at amethopterin-resistant Lactobacillus casei thymidylate synthetase by spectrophotometric analysis in presence of CH2-H4-folate
# [5] = substrate: O=c1[nH]c(=O)n([C@H]2C[C@H](O)[C@@H](COP(=O)(O)O)O2)cc1Br; test: Activity at amethopterin-resistant Lactobacillus casei thymidylate synthetase by absorbance analysis; details: Lacticaseibacillus casei
# [6] = substrate: O=c1[nH]c(=O)n([C@H]2C[C@H](O)[C@@H](COP(=O)(O)O)O2)cc1I; test: as above; details: Lacticaseibacillus casei
molecule,measurement,setting,value
O=c1[nH]c(=O)n([C@H]2C[C@H](O)[C@@H](COP(=O)(O)O)O2)cc1Br,Activity,[1],3%
same,Ki,[2],1400 nM
O=c1[nH]c(=O)n([C@H]2C[C@H](O)[C@@H](COP(=O)(O)O)O2)cc1C(F)(F)F,Ki,[2],39 nM
Cc1cn([C@H]2C[C@H](O)[C@@H](COP(=O)(O)O)O2)c(=O)[nH]c1=O [THYMIDINE MONOPHOSPHATE],Ki,[3],8690 nM
same,Ki,[2],15500 nM
O=c1[nH]c(=O)n([C@H]2C[C@H](O)[C@@H](COP(=O)(O)O)O2)cc1I,Activity,[1],2.5%
same,Ki,[2],1600 nM
O=c1ccn([C@H]2C[C@H](O)[C@@H](COP(=O)(O)O)O2)c(=O)[nH]1 [DEOXYURIDINE MONOPHOSPHATE],Ki,[3],2260 nM
O=Cc1cn([C@H]2C[C@H](O)[C@@H](COP(=O)(O)O)O2)c(=O)[nH]c1=O,Ki,[2],17 nM
O=c1[nH]c(=O)n([C@H]2C[C@H](O)[C@@H](COP(=O)(O)O)O2)cc1Cl,Ki,[3],9390 nM
same,Ki,[2],190 nM
B1,Km,[4],5.2 µM
same,Km,[5],5.7 µM
same,Km,[6],1.44 µM
